Structures can show the parent of a compound that is named as a salt.
Tests used:
[1] = tested on: patients with COVID-19 pneumonia; test: Randomized, double-blind, placebo-controlled Phase 2a study of opaganib in COVID-19 pneumonia; assay type: in vivo, human
From the text: This was a phase 2a, proof of concept, multi-center randomized double-blind, parallel arm, placebo-controlled study. After informed consent was obtained, patients entered a screening phase for no more than 3 days, to determine eligibility. […] Treatment assignments remained blinded to the patient, investigator and hospital staff, as well as the sponsor. As there was no consensus for a definitive treatment specifically targeting the SARS-CoV-2 virus causing COVID-19 (Wilson, 2020), standard of care referred to regional, institutional or physician directed therapies, that were implemented during the COVID-19 pandemic.
Study drug was to be administered every day for 14 days (Day 1 to Day 14), unless the patient had been discharged from the hospital without requiring supplemental oxygen, in which case study drug would only be administered to Day 10.
All participants were followed up for 4 weeks after their last dose of study drug, which may have occurred at the end of the 2-week double-blind treatment phase or after premature study drug discontinuation, based upon patient or physician determination. The maximum duration of study participation was up to 45 days (including up to 3 days screening; 2 weeks DB treatment phase and 4-weeks off-study drug follow-up)
• 1. Adult male or female≥18 to ≤80 years of age • 2. Proven COVID-19 infection per RT-PCR assay of a pharyngeal sample (nasopharyngeal or oropharyngeal) AND pneumonia defined as radiographic opacities on chest X-ray • 3. The patient requires supplemental oxygen at baseline • 4. The patient, guardian or legal representative has signed a written IRB-approved informed consent Exclusion: • 1. Any co-morbidity that may add risk to the treatment in the judgement of the investigator. • 2. Requiring intubation and mechanical ventilation • 3. Oxygen saturation≥95% on room air • 4. Any preexisting respiratory condition that requires intermittent or continuous ambulatory oxygen prior to hospitalization • 5. Patient is, in the investigator's clinical judgement, unlikely to survive >72 hours • 6. Pregnant (positive serum test within 3 days prior to randomization) or nursing women • 7. Unwillingness or inability to comply with procedures required in this protocol. • 8. Corrected QT (QTc) interval on electrocardiogram (ECG) >470 ms for females or >450 ms for males, calculated using Friedericia's formula (QTcF) • 9. AST (SGOT) or ALT (SGPT) >2.5× upper limit of normal (ULN) • 10. Bilirubin>1.5×ULN (except where bilirubin increase is due to Gilbert's Syndrome) • 11. Serum creatinine>2.0×ULN • 12. Absolute neutrophil count<1000 cells/mm^3 • 13. Platelet count<75,000/mm^3 • 14. Hemoglobin<8.0 g/dL • 15. Currently taking medications that are sensitive CYP3A4, CYP2C9 or CYP2C19 substrates and have a narrow therapeutic index • 16. Currently taking medications that are strong inducers or inhibitors of CYP2D6 and CYP3A4 • 17. Currently taking warfarin, apixaban, argatroban or rivaroxaban • 18. Current drug or alcohol abuse • 19. Currently participating in a clinical study assessing pharmacological treatments, including anti-viral studies Number of Subjects: […]

[2] = tested on: patients with severe COVID-19 pneumonia; test: Randomized, double-blind, placebo-controlled Phase 2/3 study of opaganib in COVID-19 pneumonia (baseline FiO2 up to 60% subgroup)
[3] = tested on: human bronchial epithelial cells (HBEC)

O=C(NCc1ccncc1)C12CC3CC(C1)CC(c1ccc(Cl)cc1)(C3)C2 [opaganib, 3-(4-chlorophenyl)-adamantane-1-carboxylic acid (pyridin-4-ylmethyl) amide, hydrochloride salt]
patients with serious adverse events (SAEs) vs. placebo arm ([1]; 500 mg Q12 hours up to 14 days): fewer patients
safety ([1]; 500 mg Q12 hours up to 14 days plus standard of care, vs. placebo): safe
reduction from baseline of the medial total oxygen requirement (AUC) over 14 days ([1]; control arm 46.7%): 68.0%
proportion of patients discharged by Day 14 ([1]; control arm 55.6%): 73.7%
proportion of patients reaching room air and no longer requiring oxygen support by Day 14 ([1]; mITT sensitivity, control arm 22.2%): 52.6%
proportion of patients with 50% reduction in supplemental oxygen by day 14 ([1]; mITT sensitivity, control arm 66.7%): 89.5%
patients with adverse events such that study drug was terminated ([1]; opaganib arm, one patient in placebo arm): Two
overall adverse events vs. placebo group ([2]; 500 mg Q12 hours, 14 days): balanced
patients reaching room air by Day 14 (no supplemental oxygen for at least 24 hours) ([2]; baseline FiO2 up to 60%, 90/117 patients, placebo 85/134 (63.5%)): 77%
efficacy benefit in mortality, Sensitivity Analysis ([2]; baseline FiO2 up to 60%, nominal p-value=0.033): 64%
mortality (deaths/patients), Sensitivity Analysis ([2]; baseline FiO2 up to 60%, placebo 16/134): 5/117
efficacy benefit in reaching room air by Day 14 ([2]; baseline FiO2 up to 60%, vs. placebo, nominal p-value=0.033): 21%
median time to discharge ([2]; baseline FiO2≤60% (251 patients), placebo 14 days): 10 days
Time to a score of <=3 on the WHO Ordinal Scale: Kaplan-Meier Median ([2]; baseline FiO2≤60%, 95% CI (7.00-9.00), placebo 10.00): 8.00 days
Patients With an Improvement of 2 or More on the WHO Ordinal Scale Compared to Baseline by Day 14 ([2]; baseline FiO2≤60%, N = 117): 93 (79.49) n (%)
Time to Discharge by day 42: Number of Events ([2]; baseline FiO2≤60%, N = 117): 81 (69.2) n (%)
Time to a score of <=3 on the WHO Ordinal Scale: Number of Events ([2]; baseline FiO2≤60%, N = 117): 93 (79.5) n (%)
Time to Discharge by day 42: Difference and 95% CI (opaganib vs. placebo) ([2]; baseline FiO2≤60%, p-value 0.0022): −4.48 (−7.34, −1.62) days
Difference in Rates (Opaganib-Placebo), improvement of 2 or more on the WHO Ordinal Scale by Day 14 ([2]; baseline FiO2≤60%, p-value 0.023): 13.82%
Time to Discharge by day 42: Kaplan-Meier Mean (Restricted Mean Analysis) ([2]; baseline FiO2≤60%, placebo 17.89): 13.41 days
mortality (deaths/patients) ([2]; mITT with baseline FiO2 up to 60%, through Day 42, placebo 21/134): 7/117
reduction in mortality ([2]; mITT with baseline FiO2 up to 60%, vs. placebo, nominal p-value=0.019): 62%
cell viability [3]: remained viable
50% cytotoxicity reached in the concentration range tested ([3]; human): neither 50% inhibition nor 50% cytotoxicity were reached
